According to US6869933B2, “HIV-specific CTL inducing peptides and medicaments for preventing or treating AIDS comprising the peptides” (Ajinomoto Co., Inc., priority 1999, dated 2005):
Marks after values point to notes of the source that are not given here.

Experiments:
[1] = test system: HLA-A*1101 positive Tm EBV transformed cells pulsed with the peptide; assay: Induction of specific CTL after a single stimulation with the peptides in PBMC from HIV-subtype E-seropositive patients carrying HLA-A11; conditions: for patients from whom the specific CTL could be induced: HIV-1 subtype E infected patients carrying HLA-A11
[2] = test system: HLA-A*1101 positive Tm EBV transformed cells pulsed with the peptide; assay: Induction of specific CTL by a single stimulation with the peptides in PBL from HIV-seropositive patients carrying HLA-A11 (51Cr release CTL assay); conditions: for patients in whom peptide-specific CTL activity was induced: six HIV-1 seropositive patients carrying HLA-A*1101
[3] = test system: HLA-A*1101 positive Tm EBV transformed cells pulsed with the peptide; assay: Induction of specific CTL after a single stimulation with the peptides in PBMC from HIV-subtype B-seropositive patients carrying HLA-A11
[4] = test system: C1R-A*1101 cells infected with vaccinia virus expressing HIV-1 Pol protein or Env protein; assay type: cell-based, human
[5] = patient TT-005, effector:target 40:1, peptide 1 μM
[6] = patient TT-007, effector:target 40:1, peptide 1 μM
[7] = patient TT-008, effector:target 40:1, peptide 1 μM
[8] = patient TT-009, effector:target 40:1, peptide 1 μM
[9] = patient TU-002, effector:target 40:1, peptide 1 μM
[10] = patient TU-003, effector:target 40:1, peptide 1 μM
[11] = patient TU-007, effector:target 40:1, peptide 1 μM
[12] = patient five, effector:target 5:1, peptide 1 μM
[13] = patient five, effector:target 40:1, peptide 1 μM
[14] = patient four, effector:target 5:1, peptide 1 μM
[15] = patient four, effector:target 40:1, peptide 1 μM
[16] = patient one, effector:target 5:1, peptide 1 μM
[17] = patient one, effector:target 40:1, peptide 1 μM
[18] = patient six, effector:target 5:1, peptide 1 μM
[19] = patient six, effector:target 40:1, peptide 1 μM
[20] = patient three, effector:target 5:1, peptide 1 μM
[21] = patient three, effector:target 40:1, peptide 1 μM
[22] = patient two, effector:target 5:1, peptide 1 μM
[23] = patient two, effector:target 40:1, peptide 1 μM
[24] = patient KI-005, effector:target 40:1, peptide 1 μM
[25] = patient KI-015, effector:target 40:1, peptide 1 μM
[26] = patient KI-030, effector:target 40:1, peptide 1 μM
[27] = patient KI-035, effector:target 40:1, peptide 1 μM
[28] = patient KI-036, effector:target 40:1, peptide 1 μM

| Sequence | patients from whom the specific CTL could be induced [1] | relative cell lysis (%) [1, 5] | relative cell lysis (%) [1, 6] [%] | relative cell lysis (%) [1, 7] [%] | relative cell lysis (%) [1, 8] [%] | relative cell lysis (%) [1, 9] [%] | relative cell lysis (%) [1, 10] [%] | relative cell lysis (%) [2, 12] [%] | relative cell lysis (%) [2, 13] [%] | relative cell lysis (%) [2, 14] [%] | relative cell lysis (%) [2, 15] | relative cell lysis (%) [2, 16] [%] | relative cell lysis (%) [2, 17] [%] | relative cell lysis (%) [2, 18] [%] | relative cell lysis (%) [2, 19] [%] | relative cell lysis (%) [2, 20] [%] | relative cell lysis (%) [2, 21] [%] | relative cell lysis (%) [2, 22] [%] | relative cell lysis (%) [2, 23] [%] | patients in whom peptide-specific CTL activity was induced [2] | further results |
| --- | --- | --- | --- | --- | --- | --- | --- | --- | --- | --- | --- | --- | --- | --- | --- | --- | --- | --- | --- | --- | --- |
| AFDLSFFLK (Human immunodeficiency virus type 1) [Nef 84-9-2F6F] | six of seven | −1.3% | 24.6 | 75.5 | 76.5 | 15.4 | 41.2 |  |  |  |  |  |  |  |  |  |  |  |  |  | relative cell lysis (%) [1, 11]: 64.2% |
| AIFQSSMTK (Human immunodeficiency virus type 1) [Pol313-321] |  |  |  |  |  |  |  | −3.7 | 2.8 | 26.8 | 53.5% | 3.7 | 13.6 | 1.1 | 0.7 | 2.3 | −2.4 | 8.2 | 31.1 | three patients |  |
| ALDLSHFLK (Human immunodeficiency virus type 1) [Nef 84-9-2L] |  |  |  |  |  |  |  |  |  |  |  |  |  |  |  |  |  |  |  |  | patients from whom the specific CTL could be induced ([3]; HIV-1 subtype B infected patients carrying HLA-A11): three of five; relative cell lysis (%) [3, 24]: 68.3%; relative cell lysis (%) [3, 25]: 6.3%; relative cell lysis (%) [3, 26]: 5.5%; relative cell lysis (%) [3, 27]: 16.4%; relative cell lysis (%) [3, 28]: 50.4% |
| AVDLSHFLK (Human immunodeficiency virus type 1) [Nef 84-9, reference compound] |  |  |  |  |  |  |  |  |  |  |  |  |  |  |  |  |  |  |  |  | relative cell lysis (%) [3, 24]: 25.3* %; relative cell lysis (%) [3, 25]: 68.6%; relative cell lysis (%) [3, 26]: 6.6%; relative cell lysis (%) [3, 27]: 5.8%; relative cell lysis (%) [3, 28]: 16.5% |
| DPNPQEVVL (Human immunodeficiency virus type 1) [Env77-85] |  |  |  |  |  |  |  | −3.6 | 1.7 | 1.5 | 2.5% | −0.1 | 0.2 | 0.0 | 0.5 | −2.8 | −0.3 | −0.4 | −1.1 |  |  |
| IYQEPFKNLK [Pol496-505] |  |  |  |  |  |  |  | −2.8 | 4.9 | 4.6 | 8.00% | −2.9 | −0.6 | 3.0 | 12.9 | 3.2 | 5.1 | 2.6 | 2.5 | one of six patients |  |
| QIIEELIKK (Human immunodeficiency virus type 1) [Pol 675-9-5E] | five of seven | 3.4* % | 55.1 | 23.4 | 63.8 | 3.4 | 0.2 |  |  |  |  |  |  |  |  |  |  |  |  |  | relative cell lysis (%) [1, 11]: 5.7% |
| QIIEKLIEK (Human immunodeficiency virus type 1) [Pol 675-9-5K8E] | two of six | −4.1% | 21.7 | 10.3 | 4.5 | 5.6 | −5.6 |  |  |  |  |  |  |  |  |  |  |  |  |  |  |
| QIYAGIKVK [SF2-Pol424-9] |  |  |  |  |  |  |  | −1.7 | −3.7 | 11.7 | 27.4** % | 3.1 | −0.2 | 2.0 | 2.3 | −3.3 | 7.0 | −0.2 | 4.9 | one of six patients | killing of vaccinia-infected target cells by peptide-specific CTL clones (endogenous processing and presentation by HLA-A*1101) [4]: contain HLA-A*1101 restricted HIV-1 specific CTL epitopes |
| SVITQACPK [SF2-Env202-9] |  |  |  |  |  |  |  |  |  |  |  |  |  |  |  |  |  |  |  |  | killing of vaccinia-infected target cells by peptide-specific CTL clones (endogenous processing and presentation by HLA-A*1101) [4]: contain HLA-A*1101 restricted HIV-1 specific CTL epitopes |
